Data taken from US20260027087A1, “DOSING REGIMENS COMPRISING A KAT6 INHIBITOR FOR THE TREATMENT OF CANCER” (PFIZER INC., priority 2022, published 2026).
Like-named read-outs stand apart in the source and are kept apart here.

Experiment: Phase 1 clinical trial: COMPOUND A plasma pharmacokinetics
Type: in vivo, human
Details: for CL/F (apparent clearance) / Cmax / AUC: geometric mean (CV %); for Tmax / Cmax / AUC: human, plasma; for AUC: read-out: AUC24
Procedure: The patients in this trial are intolerant of or resistant to standard therapy.
COMPOUND A was orally administered at 2 mg, 5 mg, 8 mg, and 15 mg QD alone or 5 mg QD in combination with 500 mg of fulvestrant.
Preliminary pharmacokinetic parameters are available from 23 participants following the 1st oral dose (Day 1 of Cycle 1) and at steady state (Day 15 of Cycle 1) and presented in Table 1.
1S COMPOUND A was orally administered at 1 mg, 2 mg, 5 mg, 8 mg, and 15 mg QD alone or 5 mg QD in combination with 500 mg of fulvestrant.
A total of 29 participants had evaluable PK concentration data in Part 1A and Part 1B, at the time of the data cut-off date of 30 Sep. 2022. Of these participants, two (2) in the 1 mg QD dose group were excluded from Cycle 1 Day 15 summaries due to either dose interruption impacting PK analysis or sample collection after the data cut-off date.
Participants were to swallow COMPOUND A whole tablets and were not to manipulate or chew the study intervention prior to swallowing. COMPOUND A was administered QD by mouth for all cohorts on a continuous basis. The once daily dose was administered in 24±3 hour intervals (i.e., no less than 21 hours and no more than 27 hours apart). All cycles were 28 days in length.

Structure (SMILES): COc1ccccc1S(=O)(=O)Nc1noc2cc(Cn3cccn3)cc(OC)c12 [COMPOUND A, 2-Methoxy-N-{4-methoxy-6-[(1H-pyrazol-1-yl)methyl]-1,2-benzoxazol-3-yl}benzene-1-sulfonamide]
- time to steady state (1 mg to 15 mg QD, cut-off 30 Sep. 2022): achieved by Cycle 1 Day 15
- Rac (ratio of AUC24 at Cycle 1 Day 15 to AUC24 at Cycle 1 Day 1) (5 mg QD oral in combination with fulvestrant, N=4, median (minimum, maximum)): 4.2 (3.2, 5.1)
- Rac (ratio of AUC24 at Cycle 1 Day 15 to AUC24 at Cycle 1 Day 1) (5 mg QD oral monotherapy, N=4, median (minimum, maximum)): 4.1 (2.9, 5.5)
- Rac (ratio of AUC24 at Cycle 1 Day 15 to AUC24 at Cycle 1 Day 1) (8 mg QD oral monotherapy, N=7, median (minimum, maximum)): 3.8 (3.1, 5.1)
- Rac (ratio of AUC24 at Cycle 1 Day 15 to AUC24 at Cycle 1 Day 1) (15 mg QD oral monotherapy, N=6, median (minimum, maximum)): 3.8 (2.3, 4.7)
- CL/F (apparent clearance) (C1D15, 5 mg QD oral in combination with fulvestrant, N=4): 0.10 (26.9) L/hr
- CL/F (apparent clearance) (C1D15, 5 mg QD oral monotherapy, N=4): 0.14 (23.9) L/hr
- CL/F (apparent clearance) (C1D15, 8 mg QD oral monotherapy, N=7): 0.10 (9.7) L/hr
- CL/F (apparent clearance) (C1D15, 15 mg QD oral monotherapy, N=6): 0.12 (43.2) L/hr
- drug-drug interaction between COMPOUND A and fulvestrant (CL/F similar alone and in combination): no apparent drug-drug interaction
- linearity of pharmacokinetics (CL/F similar at each dose level, 2 mg to 15 mg, cut-off 23 Mar. 2022): linear
- linearity of PK (between 1 mg and 15 mg QD dose regimens, cut-off 30 Sep. 2022): linear
- COMPOUND A exposure (AUC24) versus dose (dose range 2 mg to 15 mg, alone or in combination with fulvestrant): increased proportionally when dose was increased
- Tmax (oral, following repeated daily dosing to Day 15, read-out: median Tmax): 3 h
- Cmax (po, 5 mg, C1D1 (after 1st dose), 5 mg QD oral monotherapy, N=4): 508 ng/mL
- AUC (po, 5 mg, C1D1, 5 mg QD oral monotherapy, N=4): 8900 ng·h/mL
- Tmax (po, 5 mg, C1D1, 5 mg QD oral monotherapy, N=4, median (minimum, maximum), read-out: Tmax): 3.5 h
- Cmax (po, 5 mg, C1D15 (steady state), 5 mg QD oral monotherapy, N=4): 1710 ng/mL
- AUC (po, 5 mg, C1D15, 5 mg QD oral monotherapy, N=4): 35900 ng·h/mL
- Tmax (po, 5 mg, C1D15, 5 mg QD oral monotherapy, N=4, median (minimum, maximum), read-out: Tmax): 3 h
- Cmax (po, 8 mg, C1D1 (after 1st dose), 8 mg QD oral monotherapy, N=7): 1050 ng/mL
- AUC (po, 8 mg, C1D1, 8 mg QD oral monotherapy, N=7): 20500 ng·h/mL
- Tmax (po, 8 mg, C1D1, 8 mg QD oral monotherapy, N=7, median (minimum, maximum), read-out: Tmax): 3 h
- Cmax (po, 8 mg, C1D15 (steady state), 8 mg QD oral monotherapy, N=7): 3620 ng/mL
- AUC (po, 8 mg, C1D15, 8 mg QD oral monotherapy, N=7): 76500 ng·h/mL
- Tmax (po, 8 mg, C1D15, 8 mg QD oral monotherapy, N=7, median (minimum, maximum), read-out: Tmax): 3 h
- Cmax (po, 15 mg, C1D1 (after 1st dose), 15 mg QD oral monotherapy, N=6): 1940 ng/mL
- AUC (po, 15 mg, C1D1, 15 mg QD oral monotherapy, N=6): 35700 ng·h/mL
- Tmax (po, 15 mg, C1D1, 15 mg QD oral monotherapy, N=6, median (minimum, maximum), read-out: Tmax): 3.5 h
- Cmax (po, 15 mg, C1D15 (steady state), 15 mg QD oral monotherapy, N=6): 6030 ng/mL
- AUC (po, 15 mg, C1D15, 15 mg QD oral monotherapy, N=6): 127000 ng·h/mL
- Tmax (po, 15 mg, C1D15, 15 mg QD oral monotherapy, N=6, median (minimum, maximum), read-out: Tmax): 3 h
- Cmax (po, C1D1 (after 1st dose), 5 mg QD oral in combination with fulvestrant, N=4): 641 ng/mL
- AUC (po, C1D1, 5 mg QD oral in combination with fulvestrant, N=4): 12100 ng·h/mL
- Tmax (po, C1D1, 5 mg QD oral in combination with fulvestrant, N=4, median (minimum, maximum), read-out: Tmax): 6 h
- Cmax (po, C1D15 (steady state), 5 mg QD oral in combination with fulvestrant, N=4): 2340 ng/mL
- AUC (po, C1D15, 5 mg QD oral in combination with fulvestrant, N=4): 50100 ng·h/mL
- Tmax (po, C1D15, 5 mg QD oral in combination with fulvestrant, N=4, median (minimum, maximum), read-out: Tmax): 6 h
- steady-state concentrations relative to Cerf targets (defined from preclinical models) (when dosed at ≥1 mg): near or above Cerf targets
